Assay results published in PubChem BioAssay AID192 (DTP/NCI, 2004).
Where “and” joins values, the source holds several entries; their conditions need not be identical. Identical values can stand only once. Toxic doses and inconclusive results are not listed. Square brackets hold non-standard residues; d marks the D form. Peptide text beside a SMILES is read from it. * marks the point of attachment. ξ: configuration not given here. Cbz = O=C(OCc1ccccc1)*; ξNle = CCCCC(N)C(=O)O

Tested on: BDF1 mice, B16 melanoma ip, median survival T/C
Assay: NCI In Vivo Anticancer Drug Screen. Data for tumor model B16 Melanoma (intraperitoneal) in B6D2F1 (BDF1) mice
Conditions: endpoint: median survival time, higher = longer survival
In short: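 In this screen, activity was judged from survival or tumor size in treated versus vehicle-treated tumor-bearing mice, reported as T/C.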

[1] = dose: 50.0 mg/kg/injection, schedule: Q01DX009 (ip), vehicle: saline
[2] = dose: 12.5 mg/kg/injection, schedule: Q01DX009 (ip), vehicle: Klucel (hydroxypropylcellulose) (HPC)
[3] = dose: 25.0 mg/kg/injection, schedule: Q01DX009 (ip), vehicle: Klucel (hydroxypropylcellulose) (HPC)
[4] = dose: 50.0 mg/kg/injection, schedule: Q01DX009 (ip), vehicle: Klucel (hydroxypropylcellulose) (HPC)
[5] = dose: 100.0 mg/kg/injection, schedule: Q01DX009 (ip), vehicle: Klucel (hydroxypropylcellulose) (HPC)
[6] = dose: 100.0 mg/kg/injection, schedule: Q01DX009 (ip), vehicle: saline with Tween-80
[7] = dose: 200.0 mg/kg/injection, schedule: Q01DX009 (ip), vehicle: saline with Tween-80
[8] = dose: 400.0 mg/kg/injection, schedule: Q01DX009 (ip), vehicle: saline with Tween-80
[9] = dose: 200.0 mg/kg/injection, schedule: Q01DX009 (ip), vehicle: Klucel (hydroxypropylcellulose) (HPC)
[10] = dose: 50.0 mg/kg/injection, schedule: Q01DX009 (ip), vehicle: saline with Tween-80

With CCC(C(=O)O)C(=O)O.[NH2-].[NH2-].[Pt+2] the T/C (dose: 8.0 mg/kg/injection, schedule: Q01DX009 (ip), vehicle: water) was 115 % of control, the T/C (dose: 12.5 mg/kg/injection, schedule: Q04DX003 (ip), vehicle: saline) was 108 % of control and 113 % of control and the T/C (dose: 16.0 mg/kg/injection, schedule: Q01DX009 (ip), vehicle: water) was 170 % of control. The T/C (dose: 25.0 mg/kg/injection, schedule: Q04DX003 (ip), vehicle: saline) was 170 % of control, the T/C (dose: 50.0 mg/kg/injection, schedule: Q04DX003 (ip), vehicle: saline) was 177 % of control and 219 % of control and the T/C (dose: 100.0 mg/kg/injection, schedule: Q04DX003 (ip), vehicle: saline) was 112 % of control and 247 % of control.
With CC(=O)NC1=C(N2CC2)C(=O)C(NC(C)=O)=C(N2CC2)C1=O the T/C (dose: 0.12 mg/kg/injection, schedule: Q01DX009 (ip), vehicle: saline with Tween-80) was 106 % of control and 112 % of control, the T/C (dose: 0.25 mg/kg/injection, schedule: Q01DX005 (ip), vehicle: saline with Tween-80) was 103 % of control and 109 % of control and the T/C (dose: 0.25 mg/kg/injection, schedule: Q01DX009 (ip), vehicle: saline with Tween-80) was 107 % of control and 112 % of control. For the same compound, the T/C (dose: 0.5 mg/kg/injection, schedule: Q01DX005 (ip), vehicle: saline with Tween-80) was 107 % of control, the T/C (dose: 0.5 mg/kg/injection, schedule: Q01DX009 (ip), vehicle: saline with Tween-80) was 124 % of control and the T/C (dose: 1.0 mg/kg/injection, schedule: Q01DX005 (ip), vehicle: saline with Tween-80) was 116 % of control and 121 % of control. For the same compound, the T/C (dose: 2.0 mg/kg/injection, schedule: Q01DX009 (ip), vehicle: saline with Tween-80) was 157 % of control, the T/C (dose: 7.0 micrograms/kg/injection, schedule: Q01DX009 (ip), vehicle: saline) was 102 % of control and the T/C (dose: 15.0 micrograms/kg/injection, schedule: Q01DX009 (ip), vehicle: saline) was 95 % of control. For the same compound, the T/C (dose: 31.0 micrograms/kg/injection, schedule: Q01DX009 (ip), vehicle: saline) was 92 % of control, the T/C (dose: 62.0 micrograms/kg/injection, schedule: Q01DX009 (ip), vehicle: saline) was 116 % of control and the T/C (dose: 125.0 micrograms/kg/injection, schedule: Q01DX009 (ip), vehicle: saline) was 95 % of control.
With C[C@@H]1C[C@](O)([C@@H](C)Cl)C(=O)O[C@@H]2CCN3CC=C(COC(=O)[C@]1(C)O)[C@H]23 the T/C (dose: 5.5 mg/kg/injection, schedule: Q01DX009 (ip), vehicle: saline) was 97 % of control, the T/C (dose: 11.0 mg/kg/injection, schedule: Q01DX009 (ip), vehicle: saline) was 90 % of control and the T/C (dose: 22.0 mg/kg/injection, schedule: Q01DX009 (ip), vehicle: saline) was 111 % of control.
For NNCCc1ccccc1, the T/C (dose: 3.12 mg/kg/injection, schedule: Q01DX009 (ip), vehicle: saline) was 94 % of control, the T/C (dose: 12.5 mg/kg/injection, schedule: Q01DX009 (ip), vehicle: saline) was 117 % of control and the T/C (dose: 25.0 mg/kg/injection, schedule: Q01DX009 (ip), vehicle: saline) was 100 % of control. The T/C [1] was 97 % of control.
OC(c1ccccc1)(c1c2ccccc2cc2ccccc12)C1CCC1 (configuration not stated) was tested, and the T/C (dose: 75.0 mg/kg/injection, schedule: Q01DX009 (ip), vehicle: Klucel (hydroxypropylcellulose) (HPC)) was 100 % of control, the T/C (dose: 150.0 mg/kg/injection, schedule: Q01DX009 (ip), vehicle: Klucel (hydroxypropylcellulose) (HPC)) was 102 % of control and the T/C (dose: 300.0 mg/kg/injection, schedule: Q01DX009 (ip), vehicle: Klucel (hydroxypropylcellulose) (HPC)) was 91 % of control.
For Cn1c(O)c(/C=C2\C=Nc3ccccc32)n(C)c1=N, the T/C [2] was 96 % of control, the T/C [3] was 100 % of control and the T/C [4] was 101 % of control. The T/C [5] was 97 % of control.
For ClCC[N+]12CC[N+](CCCl)(CC1)C2 (tested in a mixture with another compound), the T/C [1] was 120 % of control, the T/C (dose: 100.0 mg/kg/injection, schedule: Q01DX009 (ip), vehicle: saline) was 115 % of control and the T/C (dose: 200.0 mg/kg/injection, schedule: Q01DX009 (ip), vehicle: saline) was 121 % of control.
With O=C(Nc1ccccc1Cl)Oc1ccccc1Cc1ccccc1 the T/C (dose: 100.0 mg/kg/injection, schedule: Q04DX003 (ip), vehicle: Klucel (hydroxypropylcellulose) (HPC)) was 100 % of control, the T/C (dose: 200.0 mg/kg/injection, schedule: Q04DX003 (ip), vehicle: Klucel (hydroxypropylcellulose) (HPC)) was 106 % of control and the T/C (dose: 400.0 mg/kg/injection, schedule: Q04DX003 (ip), vehicle: Klucel (hydroxypropylcellulose) (HPC)) was 93 % of control.
With CC(=O)OC(OC(C)=O)c1ccc([N+](=O)[O-])cc1 the T/C [6] was 93 % of control, the T/C [7] was 95 % of control and the T/C [8] was 86 % of control.
CC(C)CC(NC(=O)C(N)C(C)C)C(=O)NC(CCCCN)C(=O)Nc1ccc(N(CCCl)CCCl)cc1 (configuration not stated) was tested, and the T/C (dose: 0.74 mg/kg/injection, schedule: Q01DX009 (ip), vehicle: saline) was 105 % of control, the T/C (dose: 1.49 mg/kg/injection, schedule: Q01DX009 (ip), vehicle: saline) was 109 % of control and 120 % of control and the T/C (dose: 5.95 mg/kg/injection, schedule: Q01DX009 (ip), vehicle: saline) was 159 % of control and 182 % of control.
In the case of OCc1cc(Cl)ccc1O, the T/C [4] is reported as 103 % of control, the T/C [5] is reported as 96 % of control and the T/C [9] is reported as 86 % of control.
For C=CCCCCCCCCC(=O)N(CCOC)CCOC, the T/C (dose: 25.0 mg/kg/injection, schedule: Q01DX009 (ip), vehicle: saline with Tween-80) was 115 % of control, the T/C (dose: 25.0 mg/kg/injection, schedule: Q04DX003 (ip), vehicle: saline with Tween-80) was 97 % of control and the T/C [10] was 102 % of control. The T/C (dose: 50.0 mg/kg/injection, schedule: Q04DX003 (ip), vehicle: saline with Tween-80) was 91 % of control and the T/C (dose: 100.0 mg/kg/injection, schedule: Q04DX003 (ip), vehicle: saline with Tween-80) was 89 % of control.
With Nc1n[nH]c(=O)[nH]1 the T/C [3] was 107 % of control, the T/C [4] was 98 % of control and the T/C [5] was 109 % of control. For the same compound, the T/C [9] was 107 % of control.
CC[CH2][Pb]([CH2]CC)([CH2]CC)[O]C(=O)C(Cl)(Cl)Cl was tested, and the T/C (dose: 2.0 mg/kg/injection, schedule: Q01DX009 (ip), vehicle: Klucel (hydroxypropylcellulose) (HPC)) was 120 % of control and the T/C (dose: 4.0 mg/kg/injection, schedule: Q01DX009 (ip), vehicle: Klucel (hydroxypropylcellulose) (HPC)) was 112 % of control.
With Cc1cc(CN)c(C)cc1CN the T/C (dose: 44.0 mg/kg/injection, schedule: Q01DX009 (ip), vehicle: saline) was 91 % of control.
With CCc1cccc[n+]1[O-] the T/C [8] was 96 % of control and the T/C (dose: 600.0 mg/kg/injection, schedule: Q01DX009 (ip), vehicle: saline with Tween-80) was 96 % of control.
With CCOC(=O)CC(=O)c1ccccc1F the T/C [5] was 99 % of control, the T/C [9] was 102 % of control and the T/C (dose: 400.0 mg/kg/injection, schedule: Q01DX009 (ip), vehicle: Klucel (hydroxypropylcellulose) (HPC)) was 106 % of control.
For CCCCNc1ccc(Nc2ccccc2)cc1, the T/C (dose: 25.0 mg/kg/injection, schedule: Q01DX009 (ip), vehicle: saline + alcohol) was 103 % of control and the T/C (dose: 50.0 mg/kg/injection, schedule: Q01DX009 (ip), vehicle: saline + alcohol) was 104 % of control.
CCCCC(NC(=O)OCc1ccccc1)C(=O)NCC(=O)OC (configuration not stated) (Cbz-[ξNle]-Gly-OMe) was tested, and the T/C [10] was 96 % of control, the T/C [6] was 115 % of control and the T/C [7] was 112 % of control. For the same compound, the T/C [8] was 92 % of control.
For O=C(Nc1ccc(C(=O)Nc2cc(S(=O)(=O)O)cc3cccc(S(=O)(=O)O)c23)cc1)Nc1ccc(C(=O)Nc2cc(S(=O)(=O)O)cc3cccc(S(=O)(=O)O)c23)cc1, the T/C [4] was 108 % of control, the T/C [5] was 113 % of control and the T/C [9] was 100 % of control.
For O=C1c2ccccc2C(=O)N1C[P+](c1ccccc1)(c1ccccc1)c1ccccc1, the T/C (dose: 6.25 mg/kg/injection, schedule: Q01DX009 (ip), vehicle: water) was 117 % of control, the T/C (dose: 12.5 mg/kg/injection, schedule: Q01DX009 (ip), vehicle: water) was 112 % of control and the T/C (dose: 25.0 mg/kg/injection, schedule: Q01DX009 (ip), vehicle: water) was 123 % of control.
With C[C@]12CC[C@@H]3c4ccc(O)cc4CC[C@H]3[C@@H]1CC[C@@H]2O the T/C (dose: 6.25 mg/kg/injection, schedule: Q01DX009 (ip), vehicle: Klucel (hydroxypropylcellulose) (HPC)) was 97 % of control, the T/C [2] was 94 % of control and the T/C [3] was 93 % of control. The T/C [4] was 97 % of control, the T/C [5] was 88 % of control and the T/C [9] was 87 % of control.
